Measured values taken from ChEMBL document CHEMBL5385952, “Facile Synthesis and First Antifungal Exploration of Tetracyclic Meroterpenoids: (+)-Aureol, (-)-Pelorol, and Its Analogs” (J Nat Prod, 2024).

Assays:
Sclerotinia sclerotiorum [1] = experiment: Antifungal activity against Sclerotinia sclerotiorum at 150 uM; type: functional
Rhizoctonia solani [2] = experiment: Antifungal activity against Rhizoctonia solani at 150 uM; type: functional
Botrytis cinerea = experiment: Antifungal activity against Botrytis cinerea at 150 uM; type: functional
Fusarium graminearum = experiment: Antifungal activity against Fusarium graminearum at 150 uM; type: functional
Phytophthora capsici = experiment: Antifungal activity against Phytophthora capsici at 150 uM; type: functional
Rhizoctonia solani [3] = experiment: Antifungal activity against Rhizoctonia solani
Sclerotinia sclerotiorum [4] = experiment: Antifungal activity against Sclerotinia sclerotiorum

Compound	Activity (Sclerotinia sclerotiorum [1]) [%]	Activity (Rhizoctonia solani [2]) [%]	Activity (Botrytis cinerea) [%]	Activity (Fusarium graminearum) [%]	Activity (Phytophthora capsici) [%]	EC50 (Rhizoctonia solani [3]) [µM]	EC50 (Sclerotinia sclerotiorum [4]) [µM]
COC(=O)c1cc(O)c(O)c2c1[C@]1(C)CC[C@H]3C(C)(C)CCC[C@]3(C)[C@H]1C2 [PELOROL]	75	87	52	62	40	7.7	49
C[C@H]1CC[C@H]2C(C)(C)CCC[C@]23Oc2ccc(O)cc2C[C@]13C [AUREOL]	–	–	–	–	–	6.9	19
Cc1cc2c(cc1O)C[C@@H]1[C@@]3(C)CCCC(C)(C)[C@@H]3CC[C@@]21C	31	58	24	32	9	–	–
CC1(C)CCC[C@]2(C)[C@H]3Cc4cc(O)cc(O)c4[C@]3(C)CC[C@@H]12	43	68	39	60	65	–	–
CC1(C)CCC[C@]2(C)[C@H]3Cc4c(O)c(O)cc(C(=O)O)c4[C@]3(C)CC[C@@H]12	76	73	56	51	55	18	26
CC1(C)CCC[C@]2(C)[C@H]3Cc4cc(O)ccc4[C@]3(C)CC[C@@H]12	51	62	34	37	33	34	> 150
CCc1cc(O)c(O)c2c1[C@]1(C)CC[C@H]3C(C)(C)CCC[C@]3(C)[C@H]1C2	37	41	37	53	32	–	–
CC1(C)CCC[C@]2(C)[C@H]3Cc4c(O)c(O)cc(C=O)c4[C@]3(C)CC[C@@H]12	28	43	33	55	29	–	–
Cc1cc(O)cc2c1[C@]1(C)CC[C@H]3C(C)(C)CCC[C@]3(C)[C@H]1C2	11	16	7	11	5	–	–
Cc1cc(O)c(O)c2c1[C@]1(C)CC[C@H]3C(C)(C)CCC[C@]3(C)[C@H]1C2	49	50	70	42	59	–	–
CC1(C)CCC[C@]2(C)[C@H]3Cc4c(ccc(O)c4O)[C@]3(C)CC[C@@H]12	63	62	43	71	60	–	–
CC1(C)CCC[C@]2(C)[C@H]3Cc4c(cc(C=O)c(O)c4O)[C@]3(C)CC[C@@H]12	34	3	15	37	3	–	–
CC1(C)CCC[C@]2(C)[C@H]3Cc4cc(O)ccc4O[C@]3(C)CC[C@@H]12	–	–	–	–	–	16	29
